This is an account of results in US20230406843A1, “Progranulin Modulators and Methods of Using the Same” (ARKUDA THERAPEUTICS, priority 2020, published 2023).

What is called EC50 is the concentration at which the effect is half-maximal.

The subject of one assay is progranulin. In words: Progranulin induction cellular assay (ELISA of secreted mouse PGRN). The class given is cell-based. To be noted: Mus musculus, BV-2, read-out: EC50 μM. In outline:
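Secreted mouse PGRN in culture medium is measured by ELISA. Cells tested are BV-2, primary cortical neurons and primary microglia. BV-2 cells are plated a day ahead, allowed 1 h to attach, then incubated 16 h.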
Take `COC[C@@]1(N)CC[C@@H](C(=O)N2CCc3ccccc3[C@@H]2c2ccc(F)cc2)OC1` [Compound 5217, ((2S,5S)-5-amino-5-(methoxymethyl)tetrahydro-2H-pyran-2-yl)((S)-1-(4-fluorophenyl)-3,4-dihydroisoquinolin-2(1H)-yl)methanone]: the concentration giving a half-maximal response (EC50) was determined as 0.226 µM.

As to `COC[C@]1(N)CC[C@@H](C(=O)N2CCc3ccccc3[C@@H]2c2ccc(F)cc2)OC1` [Compound 5218, ((2S,5R)-5-amino-5-(methoxymethyl)tetrahydro-2H-pyran-2-yl)((S)-1-(4-fluorophenyl)-3,4-dihydroisoquinolin-2(1H)-yl)methanone], the 50% effective concentration (EC50) came out at 0.12 µM.

As for `COC[C@]1(N)CC[C@H](C(=O)N2CCc3ccccc3[C@@H]2c2ccc(F)cc2)OC1` [Compound 5219, ((2R,5R)-5-amino-5-(methoxymethyl)tetrahydro-2H-pyran-2-yl)((S)-1-(4-fluorophenyl)-3,4-dihydroisoquinolin-2(1H)-yl)methanone], the EC50 was 0.006 µM.

As to `COC[C@@]1(N)CC[C@H](C(=O)N2CCc3ccccc3[C@@H]2c2ccc(F)cc2)OC1` [Compound 5220, ((2R,5S)-5-amino-5-(methoxymethyl)tetrahydro-2H-pyran-2-yl)((S)-1-(4-fluorophenyl)-3,4-dihydroisoquinolin-2(1H)-yl)methanone], the half-maximal effective concentration (EC50) is 0.081 µM.

Still in this assay, the particulars now being: progranulin induction assay; mouse pMG, primary cortical neurons and BV-2 cell lines named, cell type not given; ELISA-based readout; read-out: EC50.
Consider `N[C@H]1CO[C@@H](C(=O)N2CCc3ccccc3[C@@H]2c2ccc(F)cc2)C[C@H]1F` [Compound 5075, ((2R,4R,5S)-5-amino-4-fluorotetrahydro-2H-pyran-2-yl)((S)-1-(4-fluorophenyl)-3,4-dihydroisoquinolin-2(1H)-yl)methanone], for which the 50% effective concentration (EC50) came to 0.529 µM.

For `C[C@H]1C[C@@H](C(=O)N2CCc3ccccc3[C@@H]2c2ccc(F)cc2)OC[C@@H]1N` [Compound 5076, ((2S,4S,5R)-5-amino-4-methyltetrahydro-2H-pyran-2-yl)((S)-1-(4-fluorophenyl)-3,4-dihydroisoquinolin-2(1H)-yl)methanone], the half-maximal effective concentration (EC50) was found to be 0.321 µM.

Regarding `CO[C@H]1CO[C@@H](C(=O)N2CCc3ccccc3[C@@H]2c2ccc(F)cc2)C[C@@H]1N` [Compound 5077, ((2R,4S,5R)-4-amino-5-methoxytetrahydro-2H-pyran-2-yl)((S)-1-(4-fluorophenyl)-3,4-dihydroisoquinolin-2(1H)-yl)methanone], the EC50 was 0.003 µM.

On to `CCO[C@H]1CO[C@@H](C(=O)N2CCc3ccccc3[C@@H]2c2ccc(F)cc2)C[C@@H]1N` [Compound 5078, ((2R,4S,5R)-4-amino-5-ethoxytetrahydro-2H-pyran-2-yl)((S)-1-(4-fluorophenyl)-3,4-dihydroisoquinolin-2(1H)-yl)methanone], for which the EC50 is 0.001 µM.

As to `O=C1N[C@H]2C[C@H](C(=O)N3CCc4ccccc4[C@@H]3c3ccc(F)cc3)OC[C@H]2O1` [Compound 5079, (3aS,6R,7aS)-6-((S)-1-(4-fluorophenyl)-1,2,3,4-tetrahydroisoquinoline-2-carbonyl)hexahydro-2H-pyrano[4,3-d]oxazol-2-one], the EC50 was > 10 µM.

`N[C@H]1C[C@@H](C(=O)N2CCc3ccccc3[C@@H]2c2ccc(F)cc2)OC[C@@H]1O` [Compound 5083, ((2S,4S,5R)-4-amino-5-hydroxytetrahydro-2H-pyran-2-yl)((S)-1-(4-fluorophenyl)-3,4-dihydroisoquinolin-2(1H)-yl)methanone]: the EC50 worked out at 0.084 µM.

Regarding `C[C@@H]1C[C@@H](C(=O)N2CCc3ccccc3[C@@H]2c2ccc(F)cc2)OC[C@@H]1N` [Compound 5084, ((2S,4R,5R)-5-amino-4-methyltetrahydro-2H-pyran-2-yl)((S)-1-(4-fluorophenyl)-3,4-dihydroisoquinolin-2(1H)-yl)methanone], the concentration for a half-maximal effect (EC50) was 0.18 µM.

For the compound `CN(C)[C@@H]1CO[C@@H](C(=O)N2CCc3ccccc3[C@@H]2c2ccc(F)cc2)C[C@@H]1O` [Compound 5085, ((2R,4S,5R)-5-(dimethylamino)-4-hydroxytetrahydro-2H-pyran-2-yl)((S)-1-(4-fluorophenyl)-3,4-dihydroisoquinolin-2(1H)-yl)methanone], the EC50 turned out to be 0.316 µM.

As for `N[C@H]1CO[C@H](C(=O)N2CCc3ccccc3[C@@H]2c2ccc(F)cc2)C[C@H]1F` [Compound 5086, ((2S,4R,5S)-5-amino-4-fluorotetrahydro-2H-pyran-2-yl)((S)-1-(4-fluorophenyl)-3,4-dihydroisoquinolin-2(1H)-yl)methanone], the concentration for a half-maximal effect (EC50) worked out at 0.194 µM.

As to `N[C@H]1C[C@H](C(=O)N2CCc3ccccc3[C@@H]2c2ccc(F)cc2)OC[C@H]1F` [Compound 5087, ((2R,4S,5S)-4-amino-5-fluorotetrahydro-2H-pyran-2-yl)((S)-1-(4-fluorophenyl)-3,4-dihydroisoquinolin-2(1H)-yl)methanone], the EC50 was found to be 0.0421 µM.

With `CCO[C@H]1C[C@H](C(=O)N2CCc3ccccc3[C@@H]2c2ccc(F)cc2)OC[C@H]1N` [Compound 5088, ((2R,4S,5R)-5-amino-4-ethoxytetrahydro-2H-pyran-2-yl)((S)-1-(4-fluorophenyl)-3,4-dihydroisoquinolin-2(1H)-yl)methanone], the EC50 is 0.074 µM.

For the compound `N[C@@H]1CO[C@@H](C(=O)N2CCc3ccccc3[C@@H]2c2ccc(F)cc2)C[C@@H]1OC(F)F` [Compound 5089, ((2R,4S,5R)-5-amino-4-(difluoromethoxy)tetrahydro-2H-pyran-2-yl)((S)-1-(4-fluorophenyl)-3,4-dihydroisoquinolin-2(1H)-yl)methanone], the EC50 was 0.062 µM.

With `N[C@@H]1C[C@H](C(=O)N2CCc3ccccc3[C@@H]2c2ccc(F)cc2)OC[C@H]1O` [Compound 5092, ((2R,4R,5S)-4-amino-5-hydroxytetrahydro-2H-pyran-2-yl)((S)-1-(4-fluorophenyl)-3,4-dihydroisoquinolin-2(1H)-yl)methanone], the EC50 was 0.184 µM.

For `N[C@@H]1CC[C@H](C(=O)N2CCc3ccccc3[C@@H]2c2ccc(F)cc2F)OC1` [Compound 5207], the concentration giving a half-maximal response (EC50) was 0.182 µM.

Consider `N[C@H]1CO[C@@H](C(=O)N2CCc3ccccc3[C@@H]2c2ccc(F)cc2)C[C@@H]1F` [Compound 5210, ((2R,4S,5S)-5-amino-4-fluorotetrahydro-2H-pyran-2-yl)((S)-1-(4-fluorophenyl)-3,4-dihydroisoquinolin-2(1H)-yl)methanone], for which the EC50 was found to be 0.596 µM.

Turning to `O=C([C@H]1CC[C@@H](NCCO)CO1)N1CCc2ccccc2[C@@H]1c1ccc(F)cc1` [Compound 5211, ((S)-1-(4-fluorophenyl)-3,4-dihydroisoquinolin-2(1H)-yl)((2R,5R)-5-((2-hydroxyethyl)amino)tetrahydro-2H-pyran-2-yl)methanone], the EC50 was 0.209 µM.

As to `COCCN[C@@H]1CC[C@H](C(=O)N2CCc3ccccc3[C@@H]2c2ccc(F)cc2)OC1` [Compound 5212, ((S)-1-(4-fluorophenyl)-3,4-dihydroisoquinolin-2(1H)-yl)((2R,5R)-5-((2-methoxyethyl)amino)tetrahydro-2H-pyran-2-yl)methanone], the EC50 came out at 0.314 µM.

Take `N[C@]1(CO)CC[C@@H](C(=O)N2CCc3ccccc3[C@@H]2c2ccc(F)cc2)OC1` [Compound 5213, ((2S,5S)-5-amino-5-(hydroxymethyl)tetrahydro-2H-pyran-2-yl)((S)-1-(4-fluorophenyl)-3,4-dihydroisoquinolin-2(1H)-yl)methanone]: the half-maximal effective concentration (EC50) was determined as 0.401 µM.

As for `N[C@@]1(CO)CC[C@@H](C(=O)N2CCc3ccccc3[C@@H]2c2ccc(F)cc2)OC1` [Compound 5214, ((2S,5R)-5-amino-5-(hydroxymethyl)tetrahydro-2H-pyran-2-yl)((S)-1-(4-fluorophenyl)-3,4-dihydroisoquinolin-2(1H)-yl)methanone], the EC50 is 0.08 µM.

As for `N[C@@]1(CO)CC[C@H](C(=O)N2CCc3ccccc3[C@@H]2c2ccc(F)cc2)OC1` [Compound 5215, ((2R,5R)-5-amino-5-(hydroxymethyl)tetrahydro-2H-pyran-2-yl)((S)-1-(4-fluorophenyl)-3,4-dihydroisoquinolin-2(1H)-yl)methanone], the EC50 was 0.14 µM.

As to `N[C@]1(CO)CC[C@H](C(=O)N2CCc3ccccc3[C@@H]2c2ccc(F)cc2)OC1` [Compound 5216, ((2R,5S)-5-amino-5-(hydroxymethyl)tetrahydro-2H-pyran-2-yl)((S)-1-(4-fluorophenyl)-3,4-dihydroisoquinolin-2(1H)-yl)methanone], the half-maximal effective concentration (EC50) is 0.295 µM.

Turning to `C[C@]1(C(=O)N2CCc3ccccc3[C@@H]2c2ccc(F)cc2)CCNCCO1` [Compound 5239], the EC50 amounted to 0.316 µM.

For `C[C@@]1(C(=O)N2CCc3ccccc3[C@@H]2c2ccc(F)cc2)CCNCCO1` [Compound 5240], the EC50 was 0.631 µM.

Consider `O=C([C@@H]1OCCNC[C@@H]1O)N1CCc2ccccc2[C@@H]1c1ccc(F)cc1` [Compound 5243, ((S)-1-(4-fluorophenyl)-3,4-dihydroisoquinolin-2(1H)-yl)((6S,7R)-6-hydroxy-1,4-oxazepan-7-yl)methanone], for which the EC50 came to 0.2 µM.

Take `O=C([C@H]1OCCNC[C@@H]1O)N1CCc2ccccc2[C@@H]1c1ccc(F)cc1` [Compound 5244]: the concentration giving a half-maximal response (EC50) came to 0.091 µM.

`O=C([C@@H]1OCCNC[C@H]1O)N1CCc2ccccc2[C@@H]1c1ccc(F)cc1` [Compound 5245]: the EC50 was found to be 0.35 µM.

As for `CO[C@@H]1CO[C@@H](C(=O)N2CCc3ccccc3[C@@H]2c2ccc(F)cc2)C[C@H]1N` [Compound 5247, ((2R,4R,5S)-4-amino-5-methoxytetrahydro-2H-pyran-2-yl)((S)-1-(4-fluorophenyl)-3,4-dihydroisoquinolin-2(1H)-yl)methanone], the concentration for a half-maximal effect (EC50) worked out at 0.095 µM.

Consider `CCO[C@H]1CO[C@@H](C(=O)N2CCc3ccccc3[C@@H]2c2ccc(F)cc2)C[C@H]1N` [Compound 5248, ((2R,4R,5R)-4-amino-5-ethoxytetrahydro-2H-pyran-2-yl)((S)-1-(4-fluorophenyl)-3,4-dihydroisoquinolin-2(1H)-yl)methanone], for which the 50% effective concentration (EC50) is 0.032 µM.
